Experimental data from patent publication EP4671246A1, “6-ALKOXYPYRAZOLOPYRIMIDINE COMPOUND AND PHARMACEUTICAL USE THEREOF” (Japan Tobacco Inc., priority 2023, dated 2024).

Biological target: T1, NLRP3 inflammasome (Homo sapiens, UniProt Q96P20)
T1 construct: host or cells: THP1-Null cells (PMA-differentiated, LPS-primed, nigericin-stimulated)
Assay: Evaluation of NLRP3 inflammasome inhibitory activity (inhibition of IL-1β production in THP1-Null cells)
Format: cell-based
Conditions: 0.5 µmol/L PMA overnight, 1 µg/mL Lipopolysaccharides 3 hours, Nigericin 7.5 µmol/L 1.5 hours, AlphaLISA Human IL-1β
Protocol: The NLRP3 inflammasome inhibitory activity of test compounds were evaluated on the basis of the inhibitory activity of the IL-1β production in THP1-Null cells (Product Number: thp-null, InvivoGen). Cells were maintained for culture in RPMI-1640 media containing 10% (v/v) fetal bovine serum, 25 mmol/L HEPES, 100 U/mL penicillin, 100 µg/mL streptomycin, 100 µg/mL normocin, and 200 µg/mL hygromycin B (set at 37°C, 5% CO2/95% air) .
Cells were suspended with media for assay containing 0.5 µmol/L PMA (RPMI-1640 media containing 10% (v/v) fetal bovine serum, 100 U/mL penicillin, and 100 µg/mL streptomycin), and the suspended cells were seeded on Corning (registered trademark) 384-well Flat Clear Bottom Black Polystyrene TC-treated Microplates (25,000 cells/25 µL/well), followed by incubation (set at 37°C, 5% CO2/95% air) overnight. The supernatant of the culture was removed, and thereto was added media for assay (25 µL/well) containing 1 µg/mL Lipopolysaccharides (Product Number: L2654, Sigma-Aldrich (registered trademark)). Then, the culture was further incubated for 3 hours (set at 37°C, 5% CO2/95% air) . The supernatant of the culture was removed. Then, a vehicle solution prepared from Opti-MEM (trademark) medium (Product Number: 31985-070, Invitrogen) was added to blank-setting wells and control-setting wells (20 µL/well), followed by incubation for 15 minutes (set at 37°C, 5% CO2/95% air). A solution containing a test compound (20 µL/well) was added to test compound-setting wells. Further, Opti-MEM (trademark) medium containing Nigericin (Product Number: N7143, Sigma-Aldrich (registered trademark)) was added to the control-setting wells and test compound-setting wells (5 µL/well), followed by incubation for 1.5 hours (set at 37°C, 5% CO2/95% air). The final concentration of Nigericin was adjusted to be 7.5 µmol/L. 5 µL/well of Opti-MEM (trademark) medium was added to the blank-setting wells. The supernatant of the culture was cryonically stored (set at -20°C) until measurement of IL-1β.
The amount of IL-1β in the culture supernatant was quantitated with AlphaLISA (registered trademark) Human IL-1β Detection Kit (Product Number: AL220C, Perkin Elmer). Fluorescence intensity was measured with a microplate reader EnSpier (Model number: 2300-00J, Perkin Elmer) or EnSight (Model number: HH34000000, Perkin Elmer) according to procedure manuals attached thereto. Inhibition rates of the test compound-setting wells were calculated on the basis of 100% for the blank-setting wells and 0% for the control-setting wells. IC50 values (i.e., 50% inhibitory concentrations) of the test compounds were calculated by logistic regression analysis.

T1 sequence (Q96P20 whole entry): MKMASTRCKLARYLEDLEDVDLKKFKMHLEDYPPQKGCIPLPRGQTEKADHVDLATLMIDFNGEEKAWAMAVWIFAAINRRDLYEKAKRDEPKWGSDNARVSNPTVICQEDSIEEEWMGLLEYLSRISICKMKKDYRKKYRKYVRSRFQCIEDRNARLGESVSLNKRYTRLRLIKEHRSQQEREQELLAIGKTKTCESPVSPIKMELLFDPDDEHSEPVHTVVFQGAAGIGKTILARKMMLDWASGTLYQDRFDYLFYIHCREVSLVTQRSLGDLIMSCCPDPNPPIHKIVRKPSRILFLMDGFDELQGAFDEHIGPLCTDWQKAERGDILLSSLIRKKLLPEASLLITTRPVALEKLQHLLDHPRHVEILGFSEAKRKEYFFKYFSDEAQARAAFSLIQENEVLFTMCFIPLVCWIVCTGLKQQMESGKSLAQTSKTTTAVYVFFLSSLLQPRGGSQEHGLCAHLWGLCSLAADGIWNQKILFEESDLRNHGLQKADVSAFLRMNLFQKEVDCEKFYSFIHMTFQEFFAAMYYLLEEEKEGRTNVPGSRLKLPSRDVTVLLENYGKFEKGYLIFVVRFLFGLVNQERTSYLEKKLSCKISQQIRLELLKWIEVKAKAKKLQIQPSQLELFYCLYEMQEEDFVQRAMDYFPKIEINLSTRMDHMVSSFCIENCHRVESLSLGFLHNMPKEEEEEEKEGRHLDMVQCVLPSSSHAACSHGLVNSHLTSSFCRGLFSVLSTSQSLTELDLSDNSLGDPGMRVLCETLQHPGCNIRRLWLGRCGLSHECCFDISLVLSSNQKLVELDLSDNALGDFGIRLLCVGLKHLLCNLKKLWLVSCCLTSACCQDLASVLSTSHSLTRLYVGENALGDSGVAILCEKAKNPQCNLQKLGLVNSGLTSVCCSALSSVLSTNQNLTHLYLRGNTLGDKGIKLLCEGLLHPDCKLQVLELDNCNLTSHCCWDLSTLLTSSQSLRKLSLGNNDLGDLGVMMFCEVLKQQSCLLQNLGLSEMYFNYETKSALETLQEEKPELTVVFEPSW

SMILES: COc1nc2nn(-c3c(C)cc(Br)cc3CF)cc2c(=O)[nH]1 [Example 115]
- IC50: 13 nM

SMILES: COc1nc2nn(-c3ccc(Br)cc3C)cc2c(=O)[nH]1 [Example 69]
- IC50: 57 nM

SMILES: COc1nc2nn(-c3ccc(Cl)c(C)c3C)cc2c(=O)[nH]1 [Example 32]
- IC50: 760 nM

SMILES: COc1nc2nn(-c3ccc(Br)cc3C(C)C)cc2c(=O)[nH]1 [Example 81]
- IC50: 58 nM

SMILES: COc1cc(C)c(-n2cc3c(=O)[nH]c(OC)nc3n2)c(C)c1 [Example 13, 6-methoxy-2-(4-methoxy-2,6-dimethylphenyl)-2,5-dihydro-4H-pyrazolo[3,4-d]pyrimidin-4-one]
- IC50: 22 nM

SMILES: COCC1(COc2nc3nn(-c4c(C)cc(Br)cc4C)cc3c(=O)[nH]2)CC1 [Example 18]
- IC50: 34 nM

SMILES: Cc1cc(Br)cc(C)c1-n1cc2c(=O)[nH]c(OCCCCO)nc2n1 [Example 113]
- IC50: 14 nM

SMILES: Cc1cc(Br)cc(C)c1-n1cc2c(=O)[nH]c(OCCCS(=O)(=O)C(C)C)nc2n1 [Example 58]
- IC50: 6 nM

SMILES: COc1nc2nn(-c3c(C)cc(C(C)(C)O)cc3C)cc2c(=O)[nH]1 [Example 31]
- IC50: 2400 nM

SMILES: COCc1cc(Br)ccc1-n1cc2c(=O)[nH]c(OC)nc2n1 [Example 41]
- IC50: 70 nM

SMILES: Cc1cc(Br)cc(C)c1-n1cc2c(=O)[nH]c(OCCC3CCOCC3)nc2n1 [Example 72]
- IC50: 27 nM

SMILES: Cc1cc(C)c(-n2cc3c(=O)[nH]c(OCc4ccccc4)nc3n2)c(C)c1 [Example 7]
- IC50: 72 nM

SMILES: CCOc1nc2nn(-c3c(C)cc(OC(F)F)cc3C)cc2c(=O)[nH]1 [Example 54]
- IC50: 13 nM

SMILES: Cc1cc(Br)cc(C)c1-n1cc2c(=O)[nH]c(OCCCC#N)nc2n1 [Example 114]
- IC50: 19 nM

SMILES: COc1nc2nn(-c3c(C)cc(C(C)(C)F)cc3C)cc2c(=O)[nH]1 [Example 118]
- IC50: 73 nM

SMILES: COc1nc2nn(-c3c(C)cc(C4CC4)cc3Cl)cc2c(=O)[nH]1 [Example 83]
- IC50: 8 nM

SMILES: Cc1cc(C2CC2)cc(C)c1-n1cc2c(=O)[nH]c(OCC(F)(F)CO)nc2n1 [Example 106]
- IC50: 29 nM

SMILES: COc1nc2nn(-c3c(C)cc(C)cc3C)cc2c(=O)[nH]1 [Example 8]
- IC50: 37 nM

SMILES: Cc1c(-n2cc3c(=O)[nH]c(OCC4CC4)nc3n2)c(C(F)(F)F)nn1C(C)C [Example 102]
- IC50: 670 nM

SMILES: COCc1cc(OC(F)F)cc(C)c1-n1cc2c(=O)[nH]c(OC)nc2n1 [Example 110]
- IC50: 210 nM

SMILES: Cc1cc(Br)cc(C)c1-n1cc2c(=O)[nH]c(OCC(F)F)nc2n1 [Example 67]
- IC50: 43 nM

SMILES: Cc1cc(C2CC2)cc(C)c1-n1cc2c(=O)[nH]c(OCCCS(C)(=O)=O)nc2n1 [Example 38]
- IC50: 8 nM

SMILES: CCc1cc(C(C)(F)F)cc(C)c1-n1cc2c(=O)[nH]c(OC)nc2n1 [Example 89]
- IC50: 24 nM

SMILES: Cc1cc(C2CC2)cc(C)c1-n1cc2c(=O)[nH]c(OCCC(C)(C)C#N)nc2n1 [Example 117]
- IC50: 31 nM

SMILES: Cc1cc(Br)cc(C)c1-n1cc2c(=O)[nH]c(OC(C)C)nc2n1 [Example 33]
- IC50: 24 nM

SMILES: CCc1cc(Br)ccc1-n1cc2c(=O)[nH]c(OC)nc2n1 [Example 70]
- IC50: 25 nM

SMILES: COc1nc2nn(-c3c(C)cc(Br)c(OC)c3C)cc2c(=O)[nH]1 [Example 96]
- IC50: 430 nM

SMILES: COc1nc2nn(-c3c(C)cc(C(F)(F)F)cc3C)cc2c(=O)[nH]1 [Example 22]
- IC50: 43 nM

SMILES: Cc1cc(C)c(-n2cc3c(=O)[nH]c(OCC4CC4)nc3n2)c(C)c1 [Example 3]
- IC50: 9 nM

SMILES: COc1ccc(-n2cc3c(=O)[nH]c(OC)nc3n2)c(C(F)(F)F)c1 [Example 24]
- IC50: 53 nM

SMILES: Cc1cc(Br)cc(C)c1-n1cc2c(=O)[nH]c(OCCN(C)C)nc2n1 [Example 25]
- IC50: 53 nM

SMILES: Cc1cc(Br)cc(C)c1-n1cc2c(=O)[nH]c(O[C@H]3CCOC3)nc2n1 [Example 37]
- IC50: 13 nM

SMILES: CCOc1cc(C)c(-n2cc3c(=O)[nH]c(OC)nc3n2)c(C)c1 [Example 94]
- IC50: 200 nM

SMILES: COc1nc2nn(-c3c(C)cc(C4CC4)cc3C)c(I)c2c(=O)[nH]1 [Example 79]
- IC50: 8 nM

SMILES: COc1nc2nn(-c3c(C)cc(C4CC4)cc3C)cc2c(=O)[nH]1 [Example 14]
- IC50: 8 nM

SMILES: COc1nc2nn(-c3c(C)cc(Br)cc3OC(F)F)cc2c(=O)[nH]1 [Example 104]
- IC50: 13 nM

SMILES: Cc1cc(Br)cc(C)c1-n1cc2c(=O)[nH]c(OC3COC3)nc2n1 [Example 121]
- IC50: 2400 nM

SMILES: Cc1cc(Br)cc(C)c1-n1cc2c(=O)[nH]c(OCCCO)nc2n1 [Example 99]
- IC50: 12 nM

SMILES: Cc1cc(Br)cc(C)c1-n1cc2c(=O)[nH]c(OCCCS(C)(=O)=O)nc2n1 [Example 35]
- IC50: 7 nM

SMILES: COc1nc2nn(-c3c(C)cc(OC(F)F)cc3C)cc2c(=O)[nH]1 [Example 39, 2-(4-(difluoromethoxy)-2,6-dimethylphenyl)-6-methoxy-2,5-dihydro-4H-pyrazolo[3,4-d]pyrimidin-4-one]
- IC50: 18 nM

SMILES: COc1nc2nn(-c3c(C)cc(Br)cc3C#N)cc2c(=O)[nH]1 [Example 101]
- IC50: 2400 nM

SMILES: Cc1cc(C2CC2)cc(C)c1-n1cc2c(=O)[nH]c(OCC(F)F)nc2n1 [Example 68]
- IC50: 25 nM

SMILES: COc1nc2nn(-c3c(C)cc(OC(F)F)cc3Cl)cc2c(=O)[nH]1 [Example 78]
- IC50: 40 nM

SMILES: COc1nc2nn(-c3ccc(C4CC4)cc3C(F)(F)F)cc2c(=O)[nH]1 [Example 45]
- IC50: 14 nM

SMILES: Cc1cc(C2CC2)cc(C)c1-n1cc2c(=O)[nH]c(OCCCS(=O)(=O)C(C)C)nc2n1 [Example 62]
- IC50: 4 nM

SMILES: COc1nc2nn(-c3ccc(Br)cc3C(O)C3CC3)cc2c(=O)[nH]1 (racemic) [Example 53]
- IC50: 160 nM

SMILES: CCOc1nc2nn(-c3c(C)cc(C)cc3C)cc2c(=O)[nH]1 [Example 9]
- IC50: 23 nM

SMILES: COc1nc2nn(-c3ccc(Cl)cc3CC3CC3)cc2c(=O)[nH]1 [Example 55]
- IC50: 70 nM

SMILES: COc1nc2nn(-c3ccc(Cl)cc3C)cc2c(=O)[nH]1 [Example 11]
- IC50: 50 nM

SMILES: COc1nc2nn(-c3c(C(F)(F)F)nn(C(C)C)c3C)cc2c(=O)[nH]1 [Example 98]
- IC50: 500 nM

SMILES: Cc1cc(C2CC2)cc(C)c1-n1cc2c(=O)[nH]c(OCCCO)nc2n1 [Example 116]
- IC50: 11 nM

SMILES: COCc1cc(OC)cc(C)c1-n1cc2c(=O)[nH]c(OC)nc2n1 [Example 93]
- IC50: 230 nM

SMILES: COCc1cc(C)c(-n2cc3c(=O)[nH]c(OC)nc3n2)c(C)c1 [Example 87]
- IC50: 1200 nM

SMILES: COc1nc2nn(-c3ccc(Br)cc3C3CC3)cc2c(=O)[nH]1 [Example 47]
- IC50: 53 nM

SMILES: COc1nc2nn(-c3c(C)cc(Br)cc3C)cc2c(=O)[nH]1 [Example 12, 2-(4-bromo-2,6-dimethylphenyl)-6-methoxy-2,5-dihydro-4H-pyrazolo[3,4-d]pyrimidin-4-one]
- IC50: 9 nM

SMILES: COCc1cc(Br)cc(C)c1-n1cc2c(=O)[nH]c(OC)nc2n1 [Example 88]
- IC50: 44 nM

SMILES: COc1nc2nn(-c3c(C)cc(C4CC4)cc3C)c(C#N)c2c(=O)[nH]1 [Example 119]
- IC50: 23 nM

SMILES: Cc1cc(Br)cc(C)c1-n1cc2c(=O)[nH]c(O[C@@H]3CCOC3)nc2n1 [Example 36]
- IC50: 19 nM

SMILES: COCc1cc(C2CC2)ccc1-n1cc2c(=O)[nH]c(OC)nc2n1 [Example 42]
- IC50: 63 nM

SMILES: COc1nc2nn(-c3c(Cl)cc(F)cc3OC)cc2c(=O)[nH]1 [Example 77]
- IC50: 2400 nM

SMILES: COc1nc2nn(-c3ccc(OC(F)F)cc3C(F)(F)F)cc2c(=O)[nH]1 [Example 63]
- IC50: 80 nM

SMILES: COc1nc2nn(-c3cc4c(cc3Cl)OCC4)cc2c(=O)[nH]1 [Example 82]
- IC50: 75 nM

SMILES: COc1nc2nn(-c3c(C)cc(C(C)(F)F)cc3Cl)cc2c(=O)[nH]1 [Example 84]
- IC50: 45 nM

SMILES: COc1nc2nn(-c3cc(C)ccc3C(F)(F)F)cc2c(=O)[nH]1 [Example 97]
- IC50: 1200 nM

SMILES: Cc1cc(C)c(-n2cc3c(=O)[nH]c(OCC(F)(F)F)nc3n2)c(C)c1 [Example 6]
- IC50: 180 nM

SMILES: COc1nc2nn(-c3c(C)cc(C4CC4)cc3OC)cc2c(=O)[nH]1 [Example 29]
- IC50: 54 nM

SMILES: Cc1cc(C2CC2)cc(C)c1-n1cc2c(=O)[nH]c(OCCC3CCOCC3)nc2n1 [Example 73]
- IC50: 18 nM

SMILES: CCOc1nc2nn(-c3c(C)cc(C4CC4)cc3C)cc2c(=O)[nH]1 [Example 50]
- IC50: 10 nM

SMILES: COc1ccc(-n2cc3c(=O)[nH]c(OC)nc3n2)c(C2CC2)c1 [Example 48]
- IC50: 190 nM
